Experimental data as given in ChEMBL document CHEMBL2440105, “Synthesis and anti-parasitic activity of a novel quinolinone-chalcone series” (Bioorg Med Chem Lett, 2013).

What was measured:
THP-1 [1] = assay: Cytotoxicity against human THP1 cells after 72 hrs by MTT assay; format: cell-based; details: THP-1, 72 h
Leishmania infantum = assay: Antileishmanial activity against Leishmania infantum MOM/MA671TMAP263 axenic amastigotes infected in THP1 cells after 72 hrs by luciferase reporter gene assay; format: functional, organism-based; details: MOM/MA671TMAP263, THP-1, 72 h
[2] = test system: Trypanosoma brucei brucei; assay: Trypanocidal activity against bloodstream forms of Trypanosoma brucei brucei Lister 427 clone 221a after 72 hrs by AlamarBlue assay; format: functional, organism-based
THP-1 [3] = assay: Cytotoxicity against human THP1 cells by AlamarBlue assay

Structure (SMILES) | IC50 (THP-1 [1]) | IC50 (Leishmania infantum) | IC50 [2] | IC50 (THP-1 [3])
COc1ccc(/C=C/C(=O)c2c(O)c3ccccc3n(Cc3ccccc3)c2=O)cc1OC | 28.7 µM | > 25 µM | 5.68 µM | 
COc1ccc(C2CC(c3c(O)c4ccccc4[nH]c3=O)=NN2c2ccccc2)cc1OC (stereo not drawn) | > 50 µM | 13.5 µM | 1.46 µM | 
CC(=O)N1N=C(c2c(O)c3ccccc3[nH]c2=O)CC1c1ccccc1C (stereo not drawn) | 4.15 µM | 0.71 µM | 1.43 µM | 
Cc1ccc(/C=C/C(=O)c2c(O)c3ccccc3[nH]c2=O)cc1 | > 50 µM | 2.1 µM | > 10 µM | 
Cc1ccccc1/C=C/C(=O)c1c(O)c2ccccc2[nH]c1=O | > 50 µM | > 50 µM | 2.6 µM | 
COc1cc(/C=C/C(=O)c2c(O)c3ccccc3[nH]c2=O)ccc1O | 23.3 µM | 11.5 µM | 4.9 µM | 
COc1cccc(/C=C/C(=O)c2c(O)c3ccccc3[nH]c2=O)c1 | 38.5 µM | 28.4 µM | 6.5 µM | 
COc1ccc(/C=C/C(=O)c2c(O)c3ccccc3[nH]c2=O)cc1 | > 50 µM | 12.7 µM | > 10 µM | 
COc1ccc(/C=C/C(=O)c2c(O)c3ccccc3[nH]c2=O)cc1OC | > 50 µM | 7.5 µM | 4.9 µM | 
CC(C)(C)c1cc(/C=C/C(=O)c2c(O)c3ccccc3[nH]c2=O)cc(C(C)(C)C)c1O | 26.2 µM | 1.3 µM | 3.3 µM | 
O=C(/C=C/c1ccc(C(F)(F)F)cc1)c1c(O)c2ccccc2[nH]c1=O | > 50 µM | 3.1 µM | > 10 µM | 
O=C(/C=C/c1ccc([N+](=O)[O-])cc1)c1c(O)c2ccccc2[nH]c1=O | > 50 µM | 26.9 µM | > 10 µM | 
O=C(O)c1ccc(/C=C/C(=O)c2c(O)c3ccccc3[nH]c2=O)cc1 | > 50 µM | 18.4 µM | > 10 µM | 
O=C(/C=C/C=C/c1ccccc1)c1c(O)c2ccccc2[nH]c1=O | > 50 µM | > 50 µM | > 10 µM | 
CC(/C=C/C(=O)c1c(O)c2ccccc2[nH]c1=O)=C\c1ccccc1 | > 50 µM | 20 µM | > 10 µM | 
CCn1c(=O)c(C(=O)/C=C/c2ccccc2C)c(O)c2ccccc21 | > 50 µM | 24.8 µM | > 10 µM | 
CCn1c(=O)c(C(=O)/C=C/c2ccc(OC)c(OC)c2)c(O)c2ccccc21 | > 50 µM | > 50 µM | > 10 µM | 
Cc1ccccc1/C=C/C(=O)c1c(O)c2ccccc2n(Cc2ccccc2)c1=O | 45.7 µM | > 25 µM | 6.17 µM | 
C[C@@H]1[C@H](O)[C@@H](C)/C=C/C=C/C=C/C=C/C=C/C=C/C=C/[C@H](O[C@@H]2O[C@H](C)[C@@H](O)[C@H](N)[C@@H]2O)C[C@@H]2O[C@](O)(C[C@@H](O)C[C@@H](O)[C@H](O)CC[C@@H](O)C[C@@H](O)CC(=O)O[C@H]1C)C[C@H](O)[C@H]2C(=O)O [AMPHOTERICIN B] | 23.8 µM | 1.2 µM |  | 
CC1CS(=O)(=O)CCN1/N=C/c1ccc([N+](=O)[O-])o1 (stereo not drawn) [NIFURTIMOX] |  |  | 2.9 µM | > 100 µM
